Experimental data: paper PMC6934184, “Selective DNA-PKcs inhibition extends the therapeutic index of localized radiotherapy and chemotherapy” (The Journal of Clinical Investigation, 2019)

Molecular target: T1, MERTK (cMER) A708S (Homo sapiens, UniProt Q12866, A708S)
T1 construct: purchased Thermo Fisher Scientific (Life Technologies) SelectScreen
Assay: SelectScreen LanthaScreen
Assay type: binding
Conditions: read-out: % displacement
Description: The in vitro kinase selectivity of NU5455 was determined using the SelectScreen Broad Assay Panel (Thermo Fisher Scientific) involving activity and binding assays (Supplemental Table 1). […] Class IA PI3Ks were measured using the p85α subunit.
Kinase [ATP] % Assay Kinase [ATP] % Assay Kinase [ATP] % Assay Kinase [ATP] % Assay […]
FGR Km app 12.1 Z SRC N1 Km app 3.9 Z MERTK (cMER) A708S n/a 0.6 L RET M918T n/a -3.5 L […]
SGK (SGK1) Km app 8.5 Z MAP4K2 (GCK) Km app 2.7 Z TLK2 n/a -0.3 L STK38 (NDR) n/a -5.9 L
MERTK (cMER) Km app 8.3 Z CDK2/cyclin A Km app 2.7 Z TGFBR1 (ALK5) n/a -0.4 L MATK (HYL) Km app -6.3 Z
FYN Km app 8.3 Z EPHA1 Km app 2.7 Z CLK3 Km app -0.5 Z ABL1 E255K Km app -6.6 Z
TEC n/a 8.1 L CDK2/cyclin E1 n/a 2.7 L MAP3K14 (NIK) n/a -0.5 L STK17A (DRAK1) n/a -6.6 L
KIT V654A n/a 8.1 L TESK2 n/a 2.7 L AKT3 (PKB gamma) Km app -0.5 Z JAK2 JH1 JH2 Km app -6.7 Z
ROS1 Km app 8.0 Z SPHK1 Km app 2.7 A MAP3K9 (MLK1) Km app -0.5 Z PRKACB (PRKAC beta) n/a -6.8 L
FGFR3 K650E Km app 7.9 Z AMPK A2/B1/G1 Km app 2.6 Z IKBKB (IKK beta) Km app -0.6 Z PDGFRA (PDGFR alpha) Km app -6.8 Z
RAF1 (cRAF) Y340D Y341D 100 7.9 Z DYRK3 Km app 2.6 Z CAMK2A (CaMKII alpha) Km app -0.6 Z NEK9 Km app -7.2 Z
PI4KA (PI4K alpha) 10 7.8 A CSNK1D (CK1 delta) Km app 2.6 Z PRKCB1 (PKC beta I) Km app -0.7 Z PDK1 Km app -7.3 Z
HIPK2 Km app 7.8 Z ACVR2A n/a 2.5 L TTK n/a -0.7 L RPS6KB1 (p70S6K) Km app -7.8 Z […]

T1 sequence (Q12866 21-999 A708S): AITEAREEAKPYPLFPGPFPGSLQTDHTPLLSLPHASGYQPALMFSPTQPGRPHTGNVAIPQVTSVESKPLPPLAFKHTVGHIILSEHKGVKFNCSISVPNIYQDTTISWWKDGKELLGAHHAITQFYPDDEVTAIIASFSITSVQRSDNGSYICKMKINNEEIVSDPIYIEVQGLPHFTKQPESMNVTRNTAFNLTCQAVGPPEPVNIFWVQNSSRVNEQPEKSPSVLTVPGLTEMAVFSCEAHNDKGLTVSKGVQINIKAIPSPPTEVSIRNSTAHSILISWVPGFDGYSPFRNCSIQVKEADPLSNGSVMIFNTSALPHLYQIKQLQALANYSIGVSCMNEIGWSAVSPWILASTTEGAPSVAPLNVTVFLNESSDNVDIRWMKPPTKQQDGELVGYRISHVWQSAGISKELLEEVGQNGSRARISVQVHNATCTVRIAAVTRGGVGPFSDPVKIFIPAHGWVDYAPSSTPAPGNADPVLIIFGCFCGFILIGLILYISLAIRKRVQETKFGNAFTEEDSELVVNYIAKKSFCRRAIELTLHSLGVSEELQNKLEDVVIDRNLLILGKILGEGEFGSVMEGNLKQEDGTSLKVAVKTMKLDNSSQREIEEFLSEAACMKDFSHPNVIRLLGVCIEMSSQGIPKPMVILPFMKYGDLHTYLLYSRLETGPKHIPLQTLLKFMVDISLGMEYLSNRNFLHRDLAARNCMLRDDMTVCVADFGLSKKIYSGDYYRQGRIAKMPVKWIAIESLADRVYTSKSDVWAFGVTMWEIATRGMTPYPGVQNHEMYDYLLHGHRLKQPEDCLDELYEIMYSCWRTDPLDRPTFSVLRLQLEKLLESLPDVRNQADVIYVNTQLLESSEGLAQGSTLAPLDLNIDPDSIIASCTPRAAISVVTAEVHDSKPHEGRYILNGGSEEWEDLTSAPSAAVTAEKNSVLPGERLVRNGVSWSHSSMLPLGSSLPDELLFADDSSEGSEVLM

CN(C(=O)CN1CCOCC1)c1ccc2sc3c(-c4cccc5c(=O)cc(N6CC7CCC(C6)O7)oc45)cccc3c2c1 [NU5455] showed an inhibition at 1 µM of 0.6%.
